# Measurements published in patent publication US20110288154A1, “RNA Interference Mediated Inhibition of Epithelial Sodium Channel (ENaC) Gene Expression Using Short Interfering Nucleic Acid (siNA)” (MERCK & CO., INC., priority 2008, published 2011).
# [invAb] = inverted abasic unit; d = 2'-deoxy (DNA); m = 2'-O-methyl; r = 2'-OH (RNA); f = 2'-fluoro
# Assays:
# mSCNN1A mRNA = assay: Screening of ENaCα siNAs in mouse NIH 3T3 cells (quantitative RT-PCR); format: cell-based; parameters: Percent Reduction of the mSCNN1A mRNA relative to a non-targeting control siNA / Mouse % KD (efficacy of ENaCα mRNA knockdown): concentration or dose not given beside the values; conditions: for Mean (mSCNN1A expression normalized to the level of m36B4) / Percent Reduction of the mSCNN1A mRNA relative to a non-targeting control siNA / Avg ENaCα Expression (mSCNN1A) / Avg 36B4 Expression: mouse NIH 3T3 cells, n = 3; for Mean (mSCNN1A expression normalized to the level of m36B4) / Percent Reduction of the mSCNN1A mRNA relative to a non-targeting control siNA / Avg 36B4 Expression: 24 hours post-transfection; for Avg ENaCα Expression (mSCNN1A): harvested 24 hours post-transfection; for Avg 36B4 Expression: housekeeping gene used for normalisation
# Protocol: siNA constructs (Table 1b) may be tested for efficacy in reducing ENaC RNA expression in, for example, A549 human lung carcinoma cells. A549 (human; ATCC cat# CCL-185) cells were cultured at 37° C. in the presence of 5% CO2 and grown in Ham's F12K medium with 2 mM L-glutamine adjusted to contain 1.5 g/L sodium bicarbonate and supplemented with fetal bovine serum at a final concentration of 10% and 100 U/mL penicillin. The A549 cells were plated approximately 24 hours before transfection in 96-well plates at 7,500 cells/well, 100 μl/well. After 24 hours complexes containing siNA and Lipofectamine 2000 (Invitrogen) were created as follows: a solution of Lipofectamine 2000 in OPTI-MEM was prepared containing Lipofectamine 2000 at a final concentration of 14 μg/ml. In parallel, solutions of the siNAs were prepared in OPTI-MEM at a final concentration of 150 nM. After both solutions were incubated at 20° C. for 20 minutes an equal volume of the siNA solutions and the Lipofectamine 2000 solution were added together for each of the siNAs. The resultant solution has the siNAs at a final concentration of 75 nM and Lipofectamine 2000 at a final concentration of 7 μg/ml. This solution was incubated at 20° C. for 20 minutes. After incubation 50 μl of the solution were added to each of the wells (in triplicate). The final concentration of siNA in each well was 25 nM and the final concentration of Lipofectamine 2000 in each well was 2.33 μg/ml. The plates were incubated for 48 hours with no change of media before harvesting. Dose response curves were determined in a similar manner with each concentration being done in triplicate and maintaining a constant amount of Lipofectamine 2000 in each transfection.
# (§1) A series of probes and primers were used to detect the various mRNA transcripts of the genes of ENaCa and GAPDH in mouse, rat, and human cell lines. The assays were performed on an ABI 7500 instrument, according to the manufacturer's instructions. Within each experiment, the baseline was set in the exponential phase of the amplification curve, and based on the intersection point of the baselines with the amplification curve, a Ct value was assigned by the instrument. This Ct value was then assigned a QTY value based on the Standard Curve. The standard curve in the various experiments herein used 1 ng to 300 ng of RNA extracted from the same cell line used for the experimental transfections.
# (§2) All IC50 values were calculated from the data using GraphPad Prizm software, specifically a sigmoidal, variable slope curve for simple ligand binding. Also, unless otherwise indicated, all calculations of the efficacy and potency (e.g., % knockdown) of the siNAs were done relative to a non-targeting control siNA. If reported, P-values were computed using The Students t-test, including the Welch Correction for unequal variances.
# (§3) In all of the calculations of the % knock-down of mRNA, the calculation was made relative to the normalized level of expression of the gene of interest in the samples treated with the non-targeting control (NTC) unless otherwise indicated. The gene of interest expression level was divided by the level of expression of GAPDH or 36B4 (depending on the species) in each sample. The three replicates for each condition in each experiment were averaged and the standard deviation of those samples was calculated. The following formula was then used to calculate the % of knock-down of the gene of interest:
# (§4) The ENaCα siNAs were designed and synthesized as described previously. The siNAs were screened in three cell lines. Human A549 cells, mouse NIH 3T3 and Rat H-4-II-E cells. The data from the screen of ENaCa siNAs in all three species is shown in Tables 3a, 3b, 4a, 4b, 5a, and 5b and a summary of the data for certain siNA molecules is presented in Table 6. Each screen was performed at 24 hrs. The decision to use this time point was based upon the degree of knockdown of the mRNA seen at that time point.
# rSCNN1A (r ENaCα) mRNA = assay: Screening of ENaCα siNAs in Rat H-4-II-E cells (quantitative RT-PCR); format: cell-based; parameters: Percent Reduction of the r ENaCα mRNA relative to a non-targeting control siNA (NTCs) / Rat % KD (efficacy of ENaCα mRNA knockdown): concentration or dose not given beside the values; conditions: for Mean (rSCNN1A expression normalized to the level of rGAPDH) / Percent Reduction of the r ENaCα mRNA relative to a non-targeting control siNA (NTCs) / Avg ENaCα Expression (rSCNN1A) / Avg GAPDH Expression (rGAPDH): Rat H-4-II-E cells, n = 3; for Mean (rSCNN1A expression normalized to the level of rGAPDH) / Percent Reduction of the r ENaCα mRNA relative to a non-targeting control siNA (NTCs) / Avg GAPDH Expression (rGAPDH): 24 hours post-transfection; for Avg ENaCα Expression (rSCNN1A): harvested 24 hours post-transfection; for Avg GAPDH Expression (rGAPDH): housekeeping gene used for normalisation
# Protocol: as §1, §2, §3, §4
Substance,Mean (mSCNN1A expression normalized to the level of m36B4) (mSCNN1A mRNA),Percent Reduction of the mSCNN1A mRNA relative to a non-targeting control siNA (mSCNN1A mRNA) [%],Avg ENaCα Expression (mSCNN1A) (mSCNN1A mRNA),Avg 36B4 Expression (mSCNN1A mRNA),Mean (rSCNN1A expression normalized to the level of rGAPDH) (rSCNN1A (r ENaCα) mRNA),Percent Reduction of the r ENaCα mRNA relative to a non-targeting control siNA (NTCs) (rSCNN1A (r ENaCα) mRNA) [%],Avg ENaCα Expression (rSCNN1A) (rSCNN1A (r ENaCα) mRNA),Avg GAPDH Expression (rGAPDH) (rSCNN1A (r ENaCα) mRNA),"IC50 (mSCNN1A mRNA; mouse cell line, dose response, read-out: Mouse IC50 (potency of ENaCα mRNA knockdown)) [nM]","Mouse % KD (efficacy of ENaCα mRNA knockdown) (mSCNN1A mRNA; mouse cell line, summary) [%]","IC50 (rSCNN1A (r ENaCα) mRNA; rat cell line, dose response, read-out: Rat IC50 (potency of ENaCα mRNA knockdown)) [nM]","Rat % KD (efficacy of ENaCα mRNA knockdown) (rSCNN1A (r ENaCα) mRNA; rat cell line, summary) [%]"
"B uGGGcAGccAGuGGAGccu TTB / AGGcuccAcuGGcuGcccAUU (sense UGGGCAGCCAGUGGAGCCUTT; antisense AGGCUCCACUGGCUGCCCAUU; siRNA; sense: DNA at AGT, 2'-fluoro at CU, [invAb] at 5' end, 3' end, backbone not given here; antisense: sugars from the 5' end rrrffffmffmmffmfffmmm, backbone not given here) [Site 1751]",0.10,27.6,2.85,28.97,0.59,36.0,26.87,45.19,,,,
"B uGuccAAccuGGGcAGccA TTB / UGGcuGcccAGGuuGGAcAUU (sense UGUCCAACCUGGGCAGCCATT; antisense UGGCUGCCCAGGUUGGACAUU; siRNA; sense: DNA at AGT, 2'-fluoro at CU, [invAb] at 5' end, 3' end, backbone not given here; antisense: sugars from the 5' end rrrffmfffmmmffmmmfmmm, backbone not given here) [Site 1742]",0.14,1.0,2.91,21.48,0.79,14.3,28.30,35.68,,,,
"B GcAuGAAGAcGGccuucuG TTB / CAGAAGGccGuCuucAuGcUU (chain 1 GCAUGAAGACGGCCUUCUGTT; chain 2 CAGAAGGCCGUCUUCAUGCUU; siRNA; chain 1: DNA at AGT, 2'-fluoro at CU, [invAb] at 5' end, 3' end, backbone not given here; chain 2: sugars from the 5' end rrrmmmmffmfmfffmfmfmm, backbone not given here) [Site 341]",0.23,3.9,3.17,13.56,1.05,18.4,19.10,18.30,,,,
"B AAccGCAuGAAGAcGGccu TTB / AGGccGucuucAuGcGGuuUU (chain 1 AACCGCAUGAAGACGGCCUTT; chain 2 AGGCCGUCUUCAUGCGGUUUU; siRNA; chain 1: sugars from the 5' end ddffdddfdddddfddfffdd, [invAb] at 5' end, 3' end, backbone not given here; chain 2: sugars from the 5' end rrrffmfffffmfmfmmffmm, backbone not given here) [Site 337]",0.24,0.8,3.42,14.44,0.96,25.4,16.40,17.17,,,,
"B ccGcAuGAAGAcGGccuuc TTB / GAAGGccGucuucAuGcGGUU (chain 1 CCGCAUGAAGACGGCCUUCTT; chain 2 GAAGGCCGUCUUCAUGCGGUU; siRNA; chain 1: DNA at AGT, 2'-fluoro at CU, [invAb] at 5' end, 3' end, backbone not given here; chain 2: sugars from the 5' end rrrmmffmfffffmfmfmmmm, backbone not given here) [Site 339]",0.35,−44.9,5.05,14.61,0.79,38.3,15.81,19.92,,,,
"B GcuGuGccuAcAucuucuA TTB / UAGAAGAuGuAGGcAcAGcUU (sense GCUGUGCCUACAUCUUCUATT; antisense UAGAAGAUGUAGGCACAGCUU; siRNA; B caps on sense ends, letter-case modifications not given here, further chemistry not given here) [Site 1388]",0.04,73.4,0.90,24.18,0.32,65.6,11.65,37.10,1.9,73,0.9,65
"B GccAGuGGAGccuGuGGuu TTB / AACcAcAGGcuccAcuGGcUU (sense GCCAGUGGAGCCUGUGGUUTT; antisense AACCACAGGCUCCACUGGCUU; siRNA; sense: DNA at AGT, 2'-fluoro at CU, [invAb] at 5' end, 3' end, backbone not given here; antisense: sugars from the 5' end rrrfmfmmmffffmffmmfmm, backbone not given here) [Site 1757]",0.11,22.2,2.58,24.24,0.72,21.5,29.36,40.49,,,,
"B cuGuGcAAccAGAAcAAAu TTB / AUUuGuucuGGuuGcAcAGUU (chain 1 CUGUGCAACCAGAACAAAUTT; chain 2 AUUUGUUCUGGUUGCACAGUU; siRNA; chain 1: DNA at AGT, 2'-fluoro at CU, [invAb] at 5' end, 3' end, backbone not given here; chain 2: sugars from the 5' end rrrfmffffmmffmfmfmmmm, backbone not given here) [Site 781]",0.22,9.8,3.50,16.49,0.86,32.8,23.09,26.57,,,,
